Activity calls are given as the source filed them.
Columns and labels:
OCI-AML-3 [1] = test: Induction of DNA methylation in human OCI-AML-3 cells at 5 uM by ELISA; format: functional, cell-based; settings: time 3.0 day, TDE = time-dependent effect
[2] = molecular target: T1, DNMT3A2/3L complex (Homo sapiens) (UniProt Q9Y6K1+Q9UJW3); test: […] of wild type full length recombinant human DNMT3A expressed in NiCo21(DE3) competent Escherichia coli cells to DNMT3L protein-protein interaction
HL-60 [3] = test: Induction of myeloid differentiation in human HL-60 cells assessed as increase in CD11b level measured after 72 hrs by propidium iodide staining based flow cytometry; format: functional, cell-based; settings: DDE = dose-dependent effect
K562 [4] = test: Induction of myeloid differentiation in human K562 cells assessed as increase in CD11b level measured after 72 hrs by propidium iodide staining based flow cytometry; format: functional, cell-based; settings: DDE = dose-dependent effect
[5] = molecular target: T1, DNMT3A2/3L complex (Homo sapiens); test: Inhibition of DNMT3L-mediated wild type full length recombinant human DNMT3A homo tetramer expressed in NiCo21(DE3) competent Escherichia coli cells to DNMT3L protein-protein interaction assessed as DNA methylation using poly dl-dC as substrate incubated for 1 hr
Homo sapiens [6] = organism: Homo sapiens; test: Inhibition of full length recombinant human DNMT3A R771A mutant expressed in NiCo21(DE3) competent Escherichia coli cells to DNMT3L (unknown origin) protein-protein interaction using FAM-DNA as substrate by fluorescence anisotropy assay
THP-1 [7] = test: Induction of apoptosis in human THP-1 cells measured after 72 hrs by annexinV staining based flow cytometry; format: functional, cell-based; settings: dose 7-12 µM, DDE = dose-dependent effect
Homo sapiens [8] = organism: Homo sapiens; test: Inhibition of full length recombinant human DNMT3A E733 mutant tetramer expressed in NiCo21(DE3) competent Escherichia coli cells
OCI-AML-3 [9] = test: Induction of apoptosis in human OCI-AML-3 cells measured after 72 hrs by annexinV staining based flow cytometry; format: functional, cell-based; settings: dose 7-12 µM, DDE = dose-dependent effect
MV4-11 [10] = test: Induction of apoptosis in human MV4-11 cells measured after 72 hrs by annexinVstaining based flow cytometry; format: functional, cell-based; settings: dose 7-12 µM, DDE = dose-dependent effect
Homo sapiens [11] = organism: Homo sapiens; test: Inhibition of full length recombinant human DNMT3A R771A mutant tetramer expressed in NiCo21(DE3) competent Escherichia coli cells to DNMT3L (unknown origin) protein-protein interaction preincubated for 1 hr
K562 [12] = test: Induction of apoptosis in human K562 cells measured after 72 hrs by annexinV staining based flow cytometry; format: functional, cell-based; settings: dose 7-12 µM, DDE = dose-dependent effect
THP-1 [13] = test: Induction of myeloid differentiation in human THP-1 cells assessed as increase in CD11b level measured after 72 hrs by propidium iodide staining based flow cytometry; format: functional, cell-based; settings: dose 5-10 µM, DDE = dose-dependent effect
MOLM-13 [14] = test: Induction of myeloid differentiation in human MOLM-13 cells assessed as increase in CD11b level measured after 72 hrs by propidium iodide staining based flow cytometry; format: functional, cell-based; settings: dose 5-10 µM, DDE = dose-dependent effect
Homo sapiens [15] = organism: Homo sapiens; test: Inhibition of full length recombinant human DNMT3A R736 mutant tetramer expressed in NiCo21(DE3) competent Escherichia coli cells
K562 [16] = test: Induction of DNA methylation in human K562 cells at 5 uM by ELISA; format: functional, cell-based; settings: time 3.0 day, TDE = time-dependent effect
[17] = molecular target: DNA (cytosine-5)-methyltransferase 3A (Homo sapiens) (UniProt Q9Y6K1); test: Inhibition of H3 peptide activated human full length DNMT3A expressed in NiCo21(DE3) competent Escherichia coli cells at 60 uM
Chain of DNA (cytosine-5)-methyltransferase 3A (Homo sapiens) (Q9Y6K1 whole entry, looked up): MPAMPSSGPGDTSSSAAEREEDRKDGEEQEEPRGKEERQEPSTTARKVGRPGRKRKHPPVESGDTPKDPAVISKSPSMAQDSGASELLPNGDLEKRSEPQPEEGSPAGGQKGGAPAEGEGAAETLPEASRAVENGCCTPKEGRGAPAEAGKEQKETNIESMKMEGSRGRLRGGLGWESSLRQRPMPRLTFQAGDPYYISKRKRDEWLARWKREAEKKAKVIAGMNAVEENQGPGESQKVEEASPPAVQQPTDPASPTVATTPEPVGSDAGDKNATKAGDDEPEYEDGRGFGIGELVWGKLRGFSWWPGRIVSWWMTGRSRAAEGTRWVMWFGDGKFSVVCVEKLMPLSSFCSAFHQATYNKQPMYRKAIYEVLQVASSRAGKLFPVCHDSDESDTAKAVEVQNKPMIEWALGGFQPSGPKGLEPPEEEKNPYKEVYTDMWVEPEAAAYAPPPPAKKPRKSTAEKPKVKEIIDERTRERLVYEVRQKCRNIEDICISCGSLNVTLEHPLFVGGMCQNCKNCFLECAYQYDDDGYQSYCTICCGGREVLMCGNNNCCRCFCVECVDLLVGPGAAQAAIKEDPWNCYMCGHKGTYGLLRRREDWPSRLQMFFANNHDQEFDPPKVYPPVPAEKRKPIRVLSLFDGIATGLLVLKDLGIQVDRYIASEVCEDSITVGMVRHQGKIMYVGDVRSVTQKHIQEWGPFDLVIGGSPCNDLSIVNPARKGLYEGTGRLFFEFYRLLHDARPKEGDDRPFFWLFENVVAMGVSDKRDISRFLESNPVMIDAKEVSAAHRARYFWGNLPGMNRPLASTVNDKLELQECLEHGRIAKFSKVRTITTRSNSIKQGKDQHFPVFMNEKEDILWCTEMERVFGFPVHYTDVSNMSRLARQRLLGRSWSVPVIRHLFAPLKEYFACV

MOLM-13 [18] = test: Induction of apoptosis in human MOLM-13 cells measured after 72 hrs by annexinV staining based flow cytometry; format: functional, cell-based; settings: dose 7-12 µM, DDE = dose-dependent effect
[19] = molecular target: DNA (cytosine-5)-methyltransferase 3A (Homo sapiens) (UniProt Q9Y6K1); test: Inhibition of wild type full length recombinant human DNMT3A expressed in NiCo21(DE3) competent Escherichia coli cells assessed as decrease the fluorescence anisotrophy of DNA bound protein using FAM/TGGATATCTAGGGGCGCTATGATAT as substrate incubated for 5 mins by microplate reader based fluorescence anisotropy assay
Homo sapiens [20] = organism: Homo sapiens; test: Inhibition of full length recombinant human DNMT3A R882H mutant expressed in NiCo21(DE3) competent Escherichia coli cells
Homo sapiens [21] = organism: Homo sapiens; test: Inhibition of full length recombinant human DNMT3A R729A mutant tetramer expressed in NiCo21(DE3) competent Escherichia coli cells to DNMT3L (unknown origin) protein-protein interaction preincubated for 1 hr
[22] = molecular target: T1, DNMT3A2/3L complex (Homo sapiens); test: Inhibition of wild type full length recombinant human DNMT3A expressed in NiCo21(DE3) competent Escherichia coli cells to DNMT3L (unknown origin) protein-protein interaction
MV4-11 [23] = test: Induction of myeloid differentiation in human MV4-11 cells assessed as increase in CD11b level measured after 72 hrs by propidium iodide staining based flow cytometry; format: functional, cell-based; settings: dose 5-10 µM, DDE = dose-dependent effect
Homo sapiens [24] = organism: Homo sapiens; test: Inhibition of full length recombinant human DNMT3A E733A mutant tetramer expressed in NiCo21(DE3) competent Escherichia coli cells to DNMT3L (unknown origin) protein-protein interaction preincubated for 1 hr
Homo sapiens [25] = organism: Homo sapiens; test: Inhibition of wild type full length recombinant human DNMT3A expressed in NiCo21(DE3) competent Escherichia coli cells to human TDG protein protein interaction using FAM/TGGATATCTAGGGGCGCTATGATAT as substrate incubated for 5 mins by microplate reader based fluorescence anisotropy assay; settings: DDE = dose-dependent effect
Homo sapiens [26] = organism: Homo sapiens; test: Inhibition of full length recombinant human DNMT3A R882H mutant expressed in NiCo21(DE3) competent Escherichia coli cells to human TDG
Homo sapiens [27] = organism: Homo sapiens; test: Inhibition of full length recombinant human DNMT3A R882H mutant expressed in NiCo21(DE3) competent Escherichia coli cells to DNMT3L (unknown origin) protein-protein interaction
Kasumi 1 [28] = test: Induction of apoptosis in human Kasumi 1 cells measured after 72 hrs by annexinV staining based flow cytometry; format: functional, cell-based; settings: dose 7-12 µM, DDE = dose-dependent effect
Homo sapiens [29] = organism: Homo sapiens; test: Inhibition of full length recombinant human DNMT3A R882H mutant expressed in NiCo21(DE3) competent Escherichia coli cells to human p53
OCI-AML-3 [30] = test: Induction of myeloid differentiation in human OCI-AML-3 cells assessed as increase in CD11b level measured after 72 hrs by propidium iodide staining based flow cytometry; format: functional, cell-based; settings: dose 5-10 µM, DDE = dose-dependent effect
[31] = molecular target: T1, DNMT3A2/3L complex (Homo sapiens); test: Inhibition of DNMT3L-mediated wild type full length recombinant human DNMT3A hetero tetramer expressed in NiCo21(DE3) competent Escherichia coli cells to DNMT3L protein-protein interaction assessed as DNA methylation using poly dl-dC as substrate incubated for 1 hr
Homo sapiens [32] = organism: Homo sapiens; test: Inhibition of full length recombinant human DNMT3A R736A mutant tetramer expressed in NiCo21(DE3) competent Escherichia coli cells to DNMT3L (unknown origin) protein-protein interaction preincubated for 1 hr
Homo sapiens [33] = organism: Homo sapiens; test: Inhibition of full length recombinant human DNMT3A R729 mutant tetramer expressed in NiCo21(DE3) competent Escherichia coli cells
Kasumi 1 [34] = test: Induction of myeloid differentiation in human Kasumi 1 cells assessed as increase in CD11b level measured after 72 hrs by propidium iodide staining based flow cytometry; format: functional, cell-based; settings: DDE = dose-dependent effect
Homo sapiens [35] = organism: Homo sapiens; test: Inhibition of wild type full length recombinant human DNMT3A expressed in NiCo21(DE3) competent Escherichia coli cells to human p53 protein-protein interaction using FAM/TGGATATCTAGGGGCGCTATGATAT as substrate incubated for 5 mins by microplate reader based fluorescence anisotropy assay; settings: DDE = dose-dependent effect
Homo sapiens [36] = organism: Homo sapiens; test: Inhibition of full length recombinant human DNMT3A R882H mutant expressed in NiCo21(DE3) competent Escherichia coli cells to DNMT3L (unknown origin) using FAM-DNA as substrate
HL-60 [37] = test: Induction of DNA methylation in human HL-60 cells at 5 uM by ELISA; format: functional, cell-based; settings: time 3.0 day, TDE = time-dependent effect
HL-60 [38] = test: Induction of apoptosis in human HL-60 cells measured after 72 hrs by annexinVstaining based flow cytometry; format: functional, cell-based; settings: dose 7-12 µM, DDE = dose-dependent effect
[39] = molecular target: Lysine-specific demethylase 5A (Homo sapiens) (UniProt P29375); test: Inhibition of KDM5A (1 to 797) activity using 21-mer biotinylated H3K4me3 peptide measured after 40 mins by TR-FRET assay
Chain of Lysine-specific demethylase 5A (Homo sapiens) (P29375 whole entry): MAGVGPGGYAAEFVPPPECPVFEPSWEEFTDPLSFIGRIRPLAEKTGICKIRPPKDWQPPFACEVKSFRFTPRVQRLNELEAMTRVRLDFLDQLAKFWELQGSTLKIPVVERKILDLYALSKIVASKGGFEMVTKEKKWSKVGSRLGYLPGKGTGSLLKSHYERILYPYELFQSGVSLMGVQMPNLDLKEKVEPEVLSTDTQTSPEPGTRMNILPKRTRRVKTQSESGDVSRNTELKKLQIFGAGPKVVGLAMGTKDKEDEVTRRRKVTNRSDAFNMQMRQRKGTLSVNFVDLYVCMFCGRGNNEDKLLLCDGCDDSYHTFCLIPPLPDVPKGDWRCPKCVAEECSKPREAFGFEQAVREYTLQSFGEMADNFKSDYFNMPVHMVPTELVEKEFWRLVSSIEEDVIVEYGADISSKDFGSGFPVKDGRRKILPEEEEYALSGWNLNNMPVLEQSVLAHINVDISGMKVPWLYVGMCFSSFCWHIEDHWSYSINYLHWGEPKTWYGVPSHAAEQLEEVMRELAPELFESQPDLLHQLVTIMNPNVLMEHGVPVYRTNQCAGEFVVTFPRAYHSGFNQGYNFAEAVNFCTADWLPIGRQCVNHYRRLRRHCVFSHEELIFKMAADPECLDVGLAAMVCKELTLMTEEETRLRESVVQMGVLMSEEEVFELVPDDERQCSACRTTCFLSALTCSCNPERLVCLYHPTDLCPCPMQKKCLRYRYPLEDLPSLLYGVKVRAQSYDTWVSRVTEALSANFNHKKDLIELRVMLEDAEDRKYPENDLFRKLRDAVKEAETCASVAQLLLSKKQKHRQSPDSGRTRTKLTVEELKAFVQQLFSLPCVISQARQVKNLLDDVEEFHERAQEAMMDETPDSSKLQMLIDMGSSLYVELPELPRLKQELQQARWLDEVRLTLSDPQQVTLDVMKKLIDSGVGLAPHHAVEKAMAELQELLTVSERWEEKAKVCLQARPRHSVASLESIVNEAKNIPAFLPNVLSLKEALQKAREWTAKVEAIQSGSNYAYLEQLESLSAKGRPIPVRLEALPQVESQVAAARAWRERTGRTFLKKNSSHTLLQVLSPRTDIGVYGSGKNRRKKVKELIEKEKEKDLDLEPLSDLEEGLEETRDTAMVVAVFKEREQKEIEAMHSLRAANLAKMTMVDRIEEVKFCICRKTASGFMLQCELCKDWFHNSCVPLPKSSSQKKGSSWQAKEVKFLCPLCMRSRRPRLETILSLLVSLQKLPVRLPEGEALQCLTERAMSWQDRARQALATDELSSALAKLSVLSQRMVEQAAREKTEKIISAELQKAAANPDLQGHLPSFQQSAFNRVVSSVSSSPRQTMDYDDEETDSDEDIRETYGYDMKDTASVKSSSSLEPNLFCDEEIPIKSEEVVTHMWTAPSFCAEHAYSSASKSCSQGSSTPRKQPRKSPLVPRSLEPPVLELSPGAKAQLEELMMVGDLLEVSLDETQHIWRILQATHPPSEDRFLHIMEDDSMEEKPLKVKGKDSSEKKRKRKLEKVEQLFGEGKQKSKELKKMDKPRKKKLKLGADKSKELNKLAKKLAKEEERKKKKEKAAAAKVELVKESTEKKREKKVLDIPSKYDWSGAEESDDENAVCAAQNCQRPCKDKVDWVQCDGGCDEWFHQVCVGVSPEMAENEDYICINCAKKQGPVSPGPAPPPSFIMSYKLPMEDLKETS

T1 sequence (Q9UJW3 whole entry, looked up): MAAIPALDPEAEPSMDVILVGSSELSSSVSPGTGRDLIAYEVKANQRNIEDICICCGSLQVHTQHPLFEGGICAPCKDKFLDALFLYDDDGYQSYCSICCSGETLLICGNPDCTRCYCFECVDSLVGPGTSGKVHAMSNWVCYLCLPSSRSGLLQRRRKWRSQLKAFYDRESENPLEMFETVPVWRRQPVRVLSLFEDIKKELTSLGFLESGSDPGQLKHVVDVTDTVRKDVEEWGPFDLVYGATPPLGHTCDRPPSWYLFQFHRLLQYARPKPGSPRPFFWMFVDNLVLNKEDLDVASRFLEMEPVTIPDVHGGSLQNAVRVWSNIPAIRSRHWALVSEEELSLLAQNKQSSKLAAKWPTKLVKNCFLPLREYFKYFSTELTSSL
T1 sequence (Q9Y6K1 whole entry, looked up): as the sequence (Q9Y6K1 whole entry, looked up) above

COc1ccc(C2=NN(C3CCCCCC3)C(=O)[C@@H]3CC=CC[C@H]23)cc1OCCCCOc1ccc(-c2nnn[nH]2)cc1
active: Activity (OCI-AML-3 [1]) Tde | Activity [2] | Activity (HL-60 [3]) Dde | Activity (K562 [4]) Dde | inhibition [5] | inhibition (Homo sapiens [6]) | Activity (THP-1 [7]) Dde | inhibition (Homo sapiens [8]) | Activity (OCI-AML-3 [9]) Dde | Activity (MV4-11 [10]) Dde | inhibition (Homo sapiens [11]) | Activity (K562 [12]) Dde | Activity (THP-1 [13]) Dde | Activity (MOLM-13 [14]) Dde | inhibition (Homo sapiens [15]) | Activity (K562 [16]) Tde | inhibition [17] | Activity (MOLM-13 [18]) Dde | inhibition [19] | inhibition (Homo sapiens [20]) | inhibition (Homo sapiens [21]) | inhibition [22] | Activity (MV4-11 [23]) Dde | inhibition (Homo sapiens [24]) | inhibition (Homo sapiens [25]) Dde | inhibition (Homo sapiens [26]) | inhibition (Homo sapiens [27]) | Activity (Kasumi 1 [28]) Dde | inhibition (Homo sapiens [29]) | Activity (OCI-AML-3 [30]) Dde | inhibition [31] | inhibition (Homo sapiens [32]) | inhibition (Homo sapiens [33]) | Activity (Kasumi 1 [34]) Dde | inhibition (Homo sapiens [35]) Dde | inhibition (Homo sapiens [36]) | Activity (HL-60 [37]) Tde | Activity (HL-60 [38]) Dde | inhibition [39]

COc1ccc(C2=NN(C3CCCCCC3)C(=O)C2(C)C)cc1OCCCCOc1ccc(-c2nn[nH]n2)cc1
active: Activity [2] | inhibition [17] | inhibition [19] | inhibition (Homo sapiens [20]) | inhibition [22] | inhibition (Homo sapiens [25]) Dde | inhibition (Homo sapiens [26]) | inhibition (Homo sapiens [27]) | inhibition (Homo sapiens [29]) | inhibition (Homo sapiens [35]) Dde | inhibition (Homo sapiens [36]) | inhibition [39]
